# Source: publication PMC11239673, “Structural basis for the bi-specificity of USP25 and USP28 inhibitors” (EMBO Reports, 2024)
# Residue numbers refer to the chain shown, from its start. “And” between values parts separate entries of the source, which are not always exact repeats. Equal entries are not always repeated. Where two headings read alike, the source gives them in different places.
# What was measured:
# Type in all cases: biochemical
# [1] = molecular target: T1, USP28Δtip L264F (Homo sapiens, UniProt Q96RU2, INS458SGSG/L264F); assay: Ub-Rho110 dose–response assay, USP28Δtip L264F; conditions: for IC50: USP28 - L264F
# T1 sequence (Q96RU2 with tags, fused parts or gaps L264F/INS458SGSG): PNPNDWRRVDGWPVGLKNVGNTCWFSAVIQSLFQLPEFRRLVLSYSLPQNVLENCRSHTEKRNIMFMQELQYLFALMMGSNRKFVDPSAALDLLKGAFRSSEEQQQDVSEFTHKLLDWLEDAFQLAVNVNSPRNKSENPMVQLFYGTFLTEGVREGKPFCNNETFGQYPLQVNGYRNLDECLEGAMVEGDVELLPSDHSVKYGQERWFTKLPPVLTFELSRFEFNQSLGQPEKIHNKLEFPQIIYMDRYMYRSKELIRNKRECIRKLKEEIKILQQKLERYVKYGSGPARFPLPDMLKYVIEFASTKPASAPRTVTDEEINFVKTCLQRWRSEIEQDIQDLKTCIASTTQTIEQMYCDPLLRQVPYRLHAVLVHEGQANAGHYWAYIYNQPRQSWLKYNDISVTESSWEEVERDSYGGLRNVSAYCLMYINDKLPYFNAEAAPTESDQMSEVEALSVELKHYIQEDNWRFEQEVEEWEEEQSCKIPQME
# [2] = molecular target: T2, USP28Δtip E366Q (Homo sapiens, UniProt Q96RU2, E366Q/INS458SGSG); assay: Ub-Rho110 dose–response assay, USP28Δtip E366Q; conditions: for IC50: USP28 - E366Q
# T2 sequence (Q96RU2 with tags, fused parts or gaps E366Q/INS458SGSG): T1 sequence (Q96RU2 with tags, fused parts or gaps L264F/INS458SGSG)
# [3] = molecular target: T3, USP25Δtip E373A (Homo sapiens, UniProt Q9UHP3, DEL465-537/E373A/INS464GSGSGS); assay: Ub-Rho110 dose–response assay, USP25Δtip E373A
# T3 construct: 6xHis or thioredoxin-6xHis (N, cleaved yes); made in house; host or cells: E. coli BL21star (DE3)
# T3 sequence (Q9UHP3 with tags, fused parts or gaps E373A/DEL465-477/P478G/DEL482-535/A536G/P537S limits assumed): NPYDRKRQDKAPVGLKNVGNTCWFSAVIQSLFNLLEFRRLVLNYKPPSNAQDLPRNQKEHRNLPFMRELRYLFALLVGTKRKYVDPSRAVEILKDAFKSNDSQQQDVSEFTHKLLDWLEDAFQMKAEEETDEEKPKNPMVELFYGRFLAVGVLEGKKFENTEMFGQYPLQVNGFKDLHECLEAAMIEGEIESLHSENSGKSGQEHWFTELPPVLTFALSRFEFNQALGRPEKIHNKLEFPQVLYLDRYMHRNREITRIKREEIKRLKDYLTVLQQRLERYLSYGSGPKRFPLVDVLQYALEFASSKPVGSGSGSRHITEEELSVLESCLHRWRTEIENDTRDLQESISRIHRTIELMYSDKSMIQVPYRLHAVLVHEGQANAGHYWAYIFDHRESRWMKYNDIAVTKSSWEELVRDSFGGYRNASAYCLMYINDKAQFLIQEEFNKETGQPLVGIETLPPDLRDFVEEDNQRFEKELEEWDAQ
# [4] = molecular target: T4, USP25Δtip WT (Homo sapiens, UniProt Q9UHP3, A536G/DEL465-477/DEL482-535/P478G/P537S); assay: Ub-Rho110 dose–response assay, USP25Δtip wt; conditions: single replicates
# T4 construct: 6xHis or thioredoxin-6xHis (N, cleaved yes); made in house; host or cells: E. coli BL21star (DE3)
# T4 sequence (Q9UHP3 with tags, fused parts or gaps DEL465-477/P478G/DEL482-535/A536G/P537S limits assumed): T3 sequence (Q9UHP3 with tags, fused parts or gaps E373A/DEL465-477/P478G/DEL482-535/A536G/P537S limits assumed) with A217E
# [5] = molecular target: T5, USP25Δtip L271F (Homo sapiens, UniProt Q9UHP3, DEL465-537/INS464GSGSGS/L271F); assay: Ub-Rho110 dose–response assay, USP25Δtip L271F
# T5 construct: 6xHis or thioredoxin-6xHis (N, cleaved yes); made in house; host or cells: E. coli BL21star (DE3)
# T5 sequence (Q9UHP3 with tags, fused parts or gaps L271F/DEL465-477/P478G/DEL482-535/A536G/P537S limits assumed): T3 sequence (Q9UHP3 with tags, fused parts or gaps E373A/DEL465-477/P478G/DEL482-535/A536G/P537S limits assumed) with L115F, A217E
# [6] = mean of replicates, read-out: IC50, mean and SD
# [7] = single replicates, read-out: IC50 of each replicate curve (unlabelled line above mean and SD)
# [8] = read-out: relative inhibition [%] - USP28 - L264F
# [9] = read-out: relative inhibition [%] - USP28 - E366Q
structure (smiles),measurement,setting,value
Cc1ccc2c(N)c(C(=O)NC3CCc4cc(N5CC6CCC(C5)N6)ccc4C3)sc2n1 (stereo not drawn) [FT206],t-test vs. USP28 WT control - L264F,[1],2.664E-04
same,IC50,[1]; [6],1.27 µM
same,IC50,[1]; [7],1.62 µM and 1.31 µM and 1.61 µM and 0.793 µM and 1.12 µM and 1.15 µM
same,inhibition at 11.11 µM,[1]; [8],90.1%
same,inhibition at 33.33 µM,[1]; [8],95.6%
same,inhibition at 100 µM,[1]; [8],97.8%
same,inhibition at […],[1]; [8],74.2% and 44.5%
same,t-test vs. USP28 WT control - E366Q,[2],3.570E-04
same,IC50,[2]; [6],17.2 µM
same,IC50,[2]; [7],21.3 µM and 17.6 µM and 14.7 µM and 24.4 µM and 11.5 µM and 13.7 µM
same,inhibition at 11.11 µM,[2]; [9],34.7%
same,inhibition at 33.33 µM,[2]; [9],57.1%
same,inhibition at 100 µM,[2]; [9],78.7%
same,t-test vs. USP25 WT control - E373A,"[3]; p value, inhibitor IC50 on USP25 E373A compared with USP25 WT",3.888E-04
same,inhibition at 11.11 µM,"[3]; read-out: relative inhibition [%] - USP25 - E373A, inhibitor 11.11 µM, single replicates",13.3%
same,inhibition at 33.33 µM,"[3]; read-out: relative inhibition [%] - USP25 - E373A, inhibitor 33.33 µM, single replicates",33.6%
same,inhibition at 100 µM,"[3]; read-out: relative inhibition [%] - USP25 - E373A, inhibitor 100.00 µM, single replicates",59.9%
same,inhibition at 11.11 µM,"[4]; read-out: relative inhibition [%] - USP25 - WT, inhibitor 11.11 µM",91.9%
same,inhibition at 33.33 µM,"[4]; read-out: relative inhibition [%] - USP25 - WT, inhibitor 33.33 µM",99%
same,inhibition at 100 µM,"[4]; read-out: relative inhibition [%] - USP25 - WT, inhibitor 100.00 µM",100%
same,t-test vs. USP25 WT control - L271F,"[5]; p value, inhibitor IC50 on USP25 L271F compared with USP25 WT",4.479E-03
same,inhibition at 11.11 µM,"[5]; read-out: relative inhibition [%] - USP25 - L271F, inhibitor 11.11 µM, single replicates",90.1%
same,inhibition at 33.33 µM,"[5]; read-out: relative inhibition [%] - USP25 - L271F, inhibitor 33.33 µM, single replicates",95.6%
same,inhibition at 100 µM,"[5]; read-out: relative inhibition [%] - USP25 - L271F, inhibitor 100.00 µM, single replicates",100%
